Measurements reported in the supplement of paper PMC10307832.

Legend:
Experiment in all cases: relative viability (nuclei count vs DMSO), 5 days (fraction); higher = more cells survive
Pemetrexed + Vorinostat = compound: Nc1nc2[nH]cc(CCc3ccc(C(=O)N[C@@H](CCC(=O)O)C(=O)O)cc3)c2c(=O)[nH]1 [Pemetrexed] + O=C(CCCCCCC(=O)Nc1ccccc1)NO [Vorinostat] (partner 1 µM)
In short: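 Relative viability is defined as nuclei in treated wells over nuclei in vehicle wells. Duplicate plates were run and medians reported. Lung cancer cell lines in 1536-well plates were dosed by pin tool one day after seeding, with one drug or with a fixed anchor-drug dose plus five library-drug doses (not always all listed) in √10 steps, and nuclei were counted after 5 days.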

Pemetrexed = compound: Nc1nc2[nH]cc(CCc3ccc(C(=O)N[C@@H](CCC(=O)O)C(=O)O)cc3)c2c(=O)[nH]1 [Pemetrexed]
In short: (§1)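 Five library-drug doses, separated by factors of √10, were pinned into 1536-well plates holding lung cancer cell lines after an overnight stay at 37 °C. Cells were fixed, permeabilised and Hoechst-stained in one step after 5 days without medium change, then imaged at 4×. Viability compares treated-well with vehicle-well nuclei, counted in MetaXpress, as a median across plates. Passing plates had control CV below 25% and at least one doubling.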

Idelalisib = compound: CC[C@H](Nc1ncnc2[nH]cnc12)c1nc2cccc(F)c2c(=O)n1-c1ccccc1 [Idelalisib]
In short: as §1

Cell Line | relative viability (Pemetrexed + Vorinostat; first compound 0.002 µM) | relative viability (Pemetrexed + Vorinostat; first compound 0.006325 µM) | relative viability (Pemetrexed + Vorinostat; first compound 0.02 µM) | relative viability (Pemetrexed + Vorinostat; first compound 0.06325 µM) | relative viability (Pemetrexed + Vorinostat; first compound 0.2 µM) | relative viability (Pemetrexed; 0.002 µM) | relative viability (Pemetrexed; 0.006325 µM) | relative viability (Pemetrexed; 0.02 µM) | relative viability (Pemetrexed; 0.06325 µM) | relative viability (Pemetrexed; 0.2 µM) | relative viability (Pemetrexed; 0.2 µM, anchor plate) | relative viability (Idelalisib; 0.04 µM) | relative viability (Idelalisib; 0.1265 µM) | relative viability (Idelalisib; 1.265 µM) | relative viability (Idelalisib; 4 µM) | relative viability (Idelalisib; 0.4 µM)
LK-2 | 0.312 | 0.313 | 0.254 | 0.297 | 0.338 | 0.854 | 0.925 | 1.06 | 0.868 | 0.685 | 0.284 | 1.22 | 1 | 1.06 | 0.87 | 
HCC-827 | 0.764 | 0.912 | 0.959 | 0.515 | 0.426 | 0.908 | 1.09 | 1.05 | 1.02 |  |  | 1.08 | 1.05 | 1.08 | 0.952 | 1.01
SW 1573 | 0.697 | 0.541 | 1.04 | 0.747 | 0.653 | 1.04 | 0.951 | 1.05 | 0.893 | 0.976 | 0.897 | 1.09 | 0.886 | 0.961 | 0.923 | 0.896
NCI-H2023 | 0.306 | 0.595 | 0.676 | 0.372 | 0.15 | 0.762 | 0.87 | 1.11 | 0.802 | 0.292 | 0.249 | 1.05 | 0.973 | 0.818 | 0.968 | 0.792
EPLC-272H | 0.519 | 0.398 | 0.544 | 0.308 | 0.288 | 0.888 | 0.892 | 1.1 | 0.935 | 0.798 | 0.313 | 1.07 | 0.9 | 0.902 | 0.873 | 0.815
SK-LU-1 | 0.684 | 0.782 | 0.887 | 0.763 | 0.795 | 0.944 | 0.979 | 1.05 | 1.12 | 1 | 0.927 | 1.07 | 1.11 | 0.953 | 0.979 | 0.866
NCI-H358 | 0.616 | 0.655 | 0.414 | 0.167 | 0.122 | 0.958 | 0.925 | 0.864 | 0.293 | 0.24 | 0.176 | 1.04 | 0.864 | 0.901 | 0.861 | 0.794
ABC-1 | 1.07 | 1.68 | 1.18 | 1.33 | 1.1 | 0.911 | 1.02 | 1.22 | 0.976 | 0.822 |  | 0.917 | 0.938 | 0.895 | 0.961 | 0.955
NCI-H1395 | 0.513 | 0.871 | 0.959 | 0.7 | 0.738 | 0.796 | 1.02 | 1.09 | 0.994 | 0.86 | 0.892 | 1.07 | 0.991 | 0.912 | 0.741 | 0.846
NCI-H2085 | 0.763 | 0.775 | 0.897 | 0.817 | 0.806 | 0.947 | 0.979 | 1.08 | 1.03 | 0.98 | 0.921 | 1.05 | 0.995 | 0.955 | 0.729 | 0.91
NCI-H2087 | 0.662 | 0.751 | 1.06 | 0.591 | 0.757 | 0.926 | 0.875 | 1.15 | 1.05 | 0.639 | 0.684 | 1.09 | 1.13 | 1.12 | 0.749 | 0.868
NCI-H322M | 0.84 | 0.957 | 0.888 | 0.893 | 0.58 | 1.09 | 0.934 | 0.98 | 0.983 | 0.741 | 0.634 | 1.08 | 1.03 | 0.849 | 0.873 | 0.808
NCI-H1734 | 0.794 | 0.725 | 0.931 | 0.778 | 0.708 | 0.997 | 0.923 | 1.11 | 0.964 | 0.676 | 0.433 | 1.15 | 1.04 | 0.959 | 0.938 | 0.833
NCI-H2228 | 0.807 | 0.493 | 0.749 | 0.413 | 0.296 | 0.799 | 0.878 | 1.2 | 0.838 | 0.333 | 0.339 | 1.22 | 0.84 | 1.12 | 0.972 | 0.788
EKVX | 0.683 | 0.654 | 0.724 | 0.793 | 0.557 | 0.854 | 0.984 | 1.03 | 0.995 | 0.734 | 0.404 | 0.925 | 1.01 | 0.854 | 0.8 | 0.849
NCI-H596 | 0.707 | 0.577 | 0.576 | 0.468 | 0.385 | 0.996 | 0.909 | 0.942 | 0.732 | 0.436 | 0.499 | 1.05 | 1.01 | 1.04 | 0.809 | 0.976
NCI-H1975 | 0.666 | 0.721 | 0.699 | 0.588 | 0.308 | 0.698 | 0.938 | 1.01 | 0.87 | 0.54 | 0.291 | 1.02 | 1.04 | 0.921 | 0.737 | 0.864
NCI-H2170 | 0.564 | 0.813 | 0.899 | 0.823 | 0.45 | 0.952 | 0.928 | 1.04 | 1.01 |  |  | 1.01 | 1.02 | 0.885 | 0.807 | 0.88

Cell Line | relative viability (Pemetrexed + Vorinostat; first compound 0.002 µM) | relative viability (Pemetrexed + Vorinostat; first compound 0.006325 µM) | relative viability (Pemetrexed + Vorinostat; first compound 0.02 µM) | relative viability (Pemetrexed + Vorinostat; first compound 0.06325 µM) | relative viability (Pemetrexed + Vorinostat; first compound 0.2 µM) | relative viability (Pemetrexed; 0.002 µM) | relative viability (Pemetrexed; 0.006325 µM) | relative viability (Pemetrexed; 0.02 µM) | relative viability (Pemetrexed; 0.06325 µM) | relative viability (Pemetrexed; 0.2 µM) | relative viability (Pemetrexed; 0.2 µM, anchor plate) | relative viability (Idelalisib; 0.04 µM) | relative viability (Idelalisib; 0.1265 µM) | relative viability (Idelalisib; 1.265 µM) | relative viability (Idelalisib; 4 µM) | relative viability (Idelalisib; 0.4 µM)
NCI-H1666 | 1.01 | 0.95 | 1.03 | 0.924 | 0.863 | 1.05 | 1.02 | 0.999 | 1.02 | 0.796 | 0.834 | 1.03 | 1.04 | 0.981 | 0.902 | 0.911
PC-3 [JPC-3] | 0.628 | 1.15 | 0.837 | 0.922 | 0.782 | 0.882 | 1.1 | 1.06 | 1.04 | 0.964 | 1.16 | 1.19 | 1.05 | 1.02 | 0.915 | 1.03
NCI-H1755 | 0.716 | 0.813 | 0.776 | 0.751 | 0.624 | 0.872 | 0.983 | 1.01 | 0.995 | 0.879 | 0.47 | 1.01 | 1.01 | 0.926 | 0.949 | 0.955
RERF-LC-KJ | 0.621 | 0.581 | 0.762 | 0.597 | 0.5 | 0.958 | 0.969 | 1.03 | 0.995 | 0.746 | 0.486 | 1.11 | 0.99 | 0.959 | 0.817 | 0.955
NCI-H647 | 0.387 | 0.479 | 0.594 | 0.458 | 0.171 | 0.734 | 1.01 | 1.04 | 0.883 | 0.289 | 0.182 | 1.01 | 1.08 | 0.847 | 0.702 | 0.719
BEN | 0.6 | 0.578 | 0.587 | 0.573 | 0.555 | 0.964 | 1 | 1.06 | 0.947 | 0.769 | 0.829 | 1.05 | 0.883 | 0.968 | 0.875 | 0.975
201T | 0.867 | 0.971 | 1.03 | 1.03 | 0.848 | 1.01 | 0.998 | 1.04 | 0.996 | 0.91 | 0.323 | 0.985 | 1.01 | 1.06 | 0.867 | 0.885
LC-2-ad | 0.657 | 0.671 | 0.663 | 0.319 | 0.27 | 0.815 | 0.974 | 0.967 | 0.296 | 0.3 | 0.285 | 1.05 | 1 | 1.12 | 0.93 | 0.962
NCI-H522 | 0.801 | 0.871 | 1.09 | 0.797 | 0.927 | 1.18 | 0.999 | 0.916 | 0.868 | 1.03 | 1.03 | 1.13 | 0.865 | 0.997 | 0.974 | 0.916
LCLC-97TM1 | 0.711 | 0.559 | 0.765 | 0.803 | 0.163 | 0.913 | 0.891 | 0.93 | 1.02 |  |  | 1.17 | 0.92 | 1.09 | 0.911 | 0.777
NCI-H1915 | 0.419 | 0.484 | 0.526 | 0.463 | 0.549 | 0.95 | 0.976 | 1.12 | 0.982 | 0.98 | 0.507 | 1.08 | 0.999 | 1.11 | 0.984 | 0.948
NCI-H3122 | 1.12 | 0.893 | 0.96 | 0.755 | 0.454 | 1.01 | 0.953 | 1.02 | 0.951 | 0.576 | 0.201 | 1.03 | 0.989 | 0.977 | 1.03 | 1
NCI-H1650 | 0.521 | 0.671 | 0.634 | 0.443 | 0.234 | 0.788 | 0.89 | 1.21 | 0.633 | 0.341 | 0.367 | 0.984 | 0.907 | 0.91 | 0.815 | 0.882
NCI-H1648 | 0.397 | 0.138 | 0.399 | 0.465 | 0.551 | 0.992 | 0.924 | 0.888 | 0.783 | 0.931 | 0.77 | 0.963 | 0.918 | 0.849 | 0.661 | 0.697
NCI-H1993 | 0.832 | 0.863 | 0.701 | 0.67 | 0.612 | 0.866 | 0.995 | 0.962 | 0.896 | 0.734 | 0.592 | 1.1 | 1.12 | 0.917 | 0.7 | 0.804
NCI-H2405 | 0.929 | 1.2 | 1.07 | 1.02 | 0.96 | 0.97 | 0.985 | 1.09 | 0.98 | 0.961 | 1.08 | 1.06 | 0.985 | 1 | 0.956 | 0.886
NCI-H661 | 0.761 | 0.72 | 0.821 | 0.8 | 0.745 | 1 | 0.975 | 1.02 | 0.977 | 0.967 | 0.923 | 1.07 | 0.976 | 1.01 | 0.994 | 0.98
NCI-H2342 | 0.824 | 0.831 | 0.749 | 0.773 | 0.843 | 0.804 | 0.95 | 1.03 | 1.02 | 1.08 | 0.769 | 1.06 | 1.09 | 1.03 | 0.882 | 0.907
